# Experimental data published in patent US12410211B2, “V1A receptor partial agonist and method of use” (PharmaIN Corporation, priority 2020, dated 2025).
# Like-named read-outs stand apart in the source and are kept apart here. Marks after values point to notes of the source that are not given here.
# Assays:
# [1] = Therapeutic index (NOAEL/NOEL): paleness, lethargy, ataxia observation in Sprague-Dawley rats (Example 7); format: in vivo; conditions: for NOAEL at 24 h: male, Sprague-Dawley
# Excerpt: As used herein, the term “therapeutic index” (TI; also referred to as therapeutic ratio) is a quantitative measure of the relative safety of a drug. […] For the purpose of the present application, lethargy is a lack of energy and/or sleepiness which is visually observed in rats as a lack of mobility, such as a lack of mobility even in the presence of human activity. For the purpose of present specification, peripheral vasoconstriction is visually observed by a paleness of the extremities (e.g., skin of hands, feet, ears, and lips). In rats, peripheral vasoconstriction is determined by a side-by-side comparison of ear paleness in treated subjects (e.g., Sprague Dawley rats, a white rat with easily visualizable changes in redness/paleness) vs. untreated control subjects. The V1a agonist (or partial agonist) with a high therapeutic index will have a better safety profile than that with a low therapeutic index by providing a wider margin of safety for dosing during the treatment of the disease. This NOAEL/NOEL ratio, being a quantitative measure of the relative safety, is a comparison of the amount of a therapeutic agent that causes the therapeutic effect (useful effect, vasoconstriction for the purpose of the present specification) to the amount that causes toxicity. A V1a agonist that causes severe vasoconstriction will affect not only the peripheral vessels, with several layer of smooth muscles, but also other vessels present in other organs (e.g., heart, lungs, kidney, brain) and this will result in observed lethargy and eventually ataxia. A partial agonist is less likely to reach such an extreme level of vasoconstriction and is believed to have a higher therapeutic index.
# In this study, 8 to 10 weeks male Sprague-Dawley rats (Charles River; Wilmington, MA) under isoflurane anesthesia (n=3 or 6) were intravenously (IV) or subcutaneously (SC) injected or administered with various test articles. Prior to administration of test articles, the injection area was clipped free of fur, to allow for clear visualization of the dose site, and animal weight was measured and recorded. Animals were housed two per cage. […] Lethargy is when the animal eyes cannot fully open and is associated deep breathing and limited of movement even in the presence of human.
# [2] = Telemetric evaluation of portal vein pressure in rats with bile duct ligation (Example 9); format: in vivo, Sprague Dawley rats; conditions: for Percent decrease (%) in Mean Portal Vein Pressure (MPVP) from BDL baseline prior to treatment: BDL rats n = 4, 12 μg/kg subcutaneous
# Experimental: For this study, animals (Sprague Dawley rats (240-300 g at surgery from Charles River Laboratory) were maintained at room temperatures (20 to 22° C.) with 14-hour light, 10-hour dark cycle when not performing study procedures. The mean portal vein pressure (MPVP) reduction efficacy of a peptide of Formula ([…] [SEQ ID NO. 13]; Mpa and C are disulfide bonded; represented as TA-1) was compared to terlipressin in telemetered male with Bile Duct Ligation (BDL) and Sham surgery. On Study Day 1, rats received bile duct ligation surgery and telemetry implantation. The BDL group (n=4) had two stands of silk suture tightened and tied to occlude the bile duct; the sham group (n=3) had sutures loosely tied around the bile duct so that no occlusion occurred. After recovery from surgery, all rats had their portal vein pressure monitored continuously via telemetry until Day 22. […] Terlipressin was administered through intravenous bolus into a lateral tail vein on Day 20 and 21. All animals were dosed under manual restraint. Systolic portal vein pressure and diastolic portal vein pressure were measured to calculate the Mean Portal Vein Pressure ([…] was analyzed by averaging 5 minute intervals for the first 4 hours after dose and thereafter averaging 1 hour intervals after dose until 24 hours. […] Telemetric evaluation of […] [SEQ ID NO. 13] and Terlipressin on portal vein pressure in rats with bile duct ligation. The animal room temperatures were set to maintain 20 to 22° C. A 14-hour light, 10-hour dark cycle was implemented unless interrupted by study procedures. Efficacy was assessed by evaluating mean portal vein pressure (MPVP) at different concentrations of Formula 1 and Terlipressin in telemetered male Sprague Dawley rats (240-300 g at surgery from Charles River Laboratory) with Bile Duct Ligation (BDL) and Sham surgery. On Study Day 1, rats received bile duct ligation surgery and telemetry implantation. The BDL group (n=4) had two stands of silk suture tightened and tied to occlude the bile duct; the sham group (n=3) had sutures loosely tied around the bile duct so that no occlusion occurred. After recovery from surgery, all rats had their portal vein pressure monitored continuously via telemetry until Day 22. […] Formula 1 was administered at different concentrations subcutaneously on Day 15 to 19, and Day 23; Terlipressin was administered through intravenous bolus into a lateral tail vein on Day 20 and 21. All animals were dosed under manual restraint. Systolic portal vein pressure and diastolic portal vein pressure were measured to calculate the Mean Portal Vein Pressure ([…] was analyzed by averaging 5 minute intervals for the first 4 hours after dose and thereafter averaging 1 hour intervals after dose until 24 hours.
# V1a receptor = biological target: T1, V1a receptor (Homo sapiens, UniProt P37288); experiment: V1a Human Vasopressin GPCR Cell Based Agonist Calcium Flux Assay; conditions: for Emax: read-out: V1a Highest agonist effect (% of AVP)
# T1 construct: host or cells: CHO cells
# T1 sequence (P37288 whole entry): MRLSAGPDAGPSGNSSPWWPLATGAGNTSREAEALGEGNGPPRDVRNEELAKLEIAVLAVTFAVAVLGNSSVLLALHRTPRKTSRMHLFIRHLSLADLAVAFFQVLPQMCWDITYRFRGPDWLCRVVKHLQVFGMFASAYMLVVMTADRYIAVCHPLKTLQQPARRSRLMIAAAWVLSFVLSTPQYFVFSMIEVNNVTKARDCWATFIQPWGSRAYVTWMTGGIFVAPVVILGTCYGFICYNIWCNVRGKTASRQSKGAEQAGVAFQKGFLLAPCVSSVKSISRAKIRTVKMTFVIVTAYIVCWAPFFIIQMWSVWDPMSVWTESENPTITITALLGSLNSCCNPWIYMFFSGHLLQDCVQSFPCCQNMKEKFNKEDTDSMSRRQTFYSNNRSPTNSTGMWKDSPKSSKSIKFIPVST
# Experimental: Peptides of Formula (I) include Mpa-Tyr-Phe-Hgn-Asn-Cys-Pro-Lys(X)a-Gly-NH2 [SEQ ID NO. 24]; where (X)a is a peptide with “a” residues and each residue X is independently selected from Gly, and a D- or L-amino acid version of Ala, Lys, Orn, Glu, and Asp, where “a” is 0-10. V1a Human Vasopressin GPCR Cell Based Agonist Calcium Flux Assay were conducted at Eurofins Cerep SA (France) on a fee for service basis. Human recombinant CHO cells expressing human V1 receptors were distributed in microplates. Intracellular calcium signal was detected by fluorimetry, and the signal was acquired before and after addition of a known agonist concentration. The following agonist concentrations were tested (nM); 0.0128, 0.064, 0.32, 1.6, 8, 40, 200, and 1,000. […] All assays were performed in duplicate. Changes in fluorescence intensity reflected changes in the concentration of free cytosolic calcium. […] The half-maximal effective concentration (EC50) was determined by a non-linear regression analysis of the concentration-response curves generated with mean replicate values using Hill equation curve fitting (Cerep, I'Evescault, France).
# V1a Human Vasopressin GPCR Cell Based Agonist Calcium Flux Assay were conducted using human recombinant CHO cells expressing human V1 receptor. Briefly, human recombinant CHO cells expressing human V1 receptor were distributed in microplates at 4.5×10^4 cells/well. The fluorescent probe (Fluo4 Direct, Invitrogen) mixed with probenicid in HBSS buffer (Invitrogen) complemented with 20 mM HEPES (Invitrogen) (pH 7.4) is then added into each well and equilibrated with the cells for 60 min at 37° C. then 15 min at 22° C. Thereafter, the assay plates are positioned in a microplate reader (CellLux, PerkinElmer) which is used for the addition of the test compound, reference agonist or HBSS buffer (basal control), and the measurements of changes in fluorescence intensity which varies proportionally to the free cytosolic Ca^2+ ion concentration. The following agonist concentrations were tested (nM), 0.0128, 0.064, 0.32, 1.6, 8, 40, 200, and 1,000. […] All assays were performed in duplicate. Changes in fluorescence intensity reflected changes in the concentration of free cytosolic calcium. […] Referring to FIG. 3 and Table 4, the half-maximal effective concentration (EC50) was determined by non-linear regression analysis of the concentration-response curves generated with mean replicate values using Hill equation curve fitting (Cerep, I'Evescault, France).
# [3] = S.C., at the Marked adverse effect dose
# [4] = S.C., at the Mild adverse effect dose
# [5] = in vivo, sc, S.C., rat, read-out: Highest dose with no-observed adverse effect level without lethargy (NOAEL)
# [6] = FIG. 2 / FIG. 3 legend, n=2, read-out: EC50 for V1a receptor
Compound,"Paleness (Duration, hrs; SD) [1, 3]","Paleness (Duration, hrs; SD) [1, 4]","Paleness (Duration, hrs; SD) ([1]; S.C., at the NOAEL dose)","Paleness (Duration, hrs; SD) ([1]; S.C., at the NOEL dose)","Highest dose with no-observed effect level or paleness (NOEL) ([1]; S.C., rat)","NOAEL at 24 h [1, 5]","Marked adverse effect (Lowest dose first showed Ataxia) ([1]; rat, in vivo, sc)","Mild adverse effect (Lowest dose first showed Lethargy) ([1]; rat, in vivo, sc)","NOAEL/NOEL (therapeutic index) ([1]; S.C., rat)",EC50 (V1a receptor; [6]),also measured
"NCC(=O)NCC(=O)NCC(=O)NCC(=O)NCC(=O)NCC(=O)NCCCC[C@H](NC(=O)[C@@H]1CCCN1C(=O)[C@@H]1CSSCCC(=O)N[C@@H](Cc2ccc(O)cc2)C(=O)N[C@@H](Cc2ccccc2)C(=O)N[C@@H](CCCC(N)=O)C(=O)N[C@@H](CC(N)=O)C(=O)N1)C(=O)NCC(N)=O [SEQ ID NO. 13, Mpa-Tyr-Phe-Hgn-Asn-Cys-Pro-Lys(X)a-Gly-NH2; (X)a = (Gly)6]",(>5.6)* hrs,(6.23 ± 0.06) hrs,(6.07 ± 0.08) hrs,None observed,0.003 mg/kg,0.3 mg/kg,5.0 mg/kg,0.5 mg/kg,–,–,"drop in portal pressure compared to Terlipressin (41 ug/kg) ([2]; 12 ug/kg dose, BDL rats): more effective in providing a sustain drop in portal pressure; Percent decrease (%) in Mean Portal Vein Pressure (MPVP) from BDL baseline prior to treatment ([2]; Time 1 hr): 5%; Percent decrease (%) in Mean Portal Vein Pressure (MPVP) from BDL baseline prior to treatment ([2]; Time 4 hr): −30.5%; Percent decrease (%) in Mean Portal Vein Pressure (MPVP) from BDL baseline prior to treatment ([2]; Time 7 hr): −10.5%; Percent decrease (%) in Mean Portal Vein Pressure (MPVP) from BDL baseline prior to treatment ([2]; Time 20 hr): −29.75%; Emax (V1a receptor; n = 2): 28.2%"
"CCCCCCCCCCCC(=O)NCCCC[C@H](NC(=O)[C@@H]1CCCN1C(=O)[C@@H]1CSSCCC(=O)N[C@@H](Cc2ccc(O)cc2)C(=O)N[C@@H](Cc2ccccc2)C(=O)N[C@@H](CCCC(N)=O)C(=O)N[C@@H](CC(N)=O)C(=O)N1)C(=O)NCC(N)=O [SEQ ID NO. 27, Mpa-Tyr-Phe-Hgn-Asn-Cys-Pro-Lys(X)a-Gly-NH2; (X)a = Lauric acid]",–,–,–,–,0.1 mg/kg,–,>9 mg/kg,>9 mg/kg,90 (dose too,–,"NOAEL [1, 5]: 9 mg/kg; Ataxia (duration, hrs; SD) ([1]; rat, in vivo, sc): None Observed; Lethargy (duration, hrs; SD) ([1]; rat, in vivo, sc): None Observed; V1a Highest agonist effect (% of AVP); n = 2 (V1a receptor; Table 3): inactive; EC50 (V1a receptor; Table 3, cells printed in μM, read-out: Estimated V1a EC50, n = 2): > 10 µM"
"NCC(=O)NCC(=O)NCC(=O)NCC(=O)NCC(=O)NCC(=O)NCC(=O)NCC(=O)NCC(=O)NCCCC[C@H](NC(=O)[C@@H]1CCCN1C(=O)[C@@H]1CSSCCC(=O)N[C@@H](Cc2ccc(O)cc2)C(=O)N[C@@H](Cc2ccccc2)C(=O)N[C@@H](CCCC(N)=O)C(=O)N[C@@H](CC(N)=O)C(=O)N1)C(=O)NCC(N)=O [SEQ ID NO. 16, Mpa-Tyr-Phe-Hgn-Asn-Cys-Pro-Lys(X)a-Gly-NH2; (X)a = (Gly)9]",(>6.99)* hrs,(>6.14)* hrs,(7.14 ± 0.11) hrs,None observed,0.005 mg/kg,0.5 mg/kg,5.0 mg/kg,1.5 mg/kg,100,0.105 µM,"Emax (V1a receptor; Table 3, n = 2): 28.1%"
"NCC(=O)NCC(=O)NCC(=O)NCC(=O)NCC(=O)NCC(=O)NCC(=O)NCC(=O)NCC(=O)NCCCC[C@H](NC(=O)[C@@H]1CCCN1C(=O)[C@@H]1CSSCCC(=O)N[C@@H](Cc2ccc(O)cc2)C(=O)N[C@@H](Cc2ccccc2)C(=O)N[C@@H](CCC(N)=O)C(=O)N[C@@H](CC(N)=O)C(=O)N1)C(=O)NCC(N)=O [SEQ ID NO. 23, Mpa-Tyr-Phe-Gln-Asn-Cys-Pro-Lys(X)a-Gly-NH2; (X)a = (Gly)9]",(>6.46)* hrs,(6.23 ± 0.05) hrs,(>5.09)* hrs,None observed,0.0015 mg/kg,0.5 mg/kg,5.0 mg/kg,1.5 mg/kg,333,0.0126 µM,"Emax (V1a receptor; Table 4, n = 2): 55.9%"
